Test results as given in BigSolDB 2.1.

O=C(O)c1ccc(Br)cn1
solubility (mole fraction) (in 1,4-dioxane, 288.15 K): 0.0326 | solubility (mole fraction) (in 1,4-dioxane, 293.15 K): 0.0378 | solubility (mole fraction) (in 1,4-dioxane, 298.15 K): 0.0435 | solubility (mole fraction) (in 1,4-dioxane, 303.15 K): 0.0502 | solubility (mole fraction) (in 1,4-dioxane, 308.15 K): 0.0574 | solubility (mole fraction) (in 1,4-dioxane, 313.15 K): 0.0656 | solubility (mole fraction) (in 1,4-dioxane, 318.15 K): 0.0744 | solubility (mole fraction) (in 1,4-dioxane, 323.15 K): 0.0831 | solubility (mole fraction) (in THF, 278.15 K): 0.0326 | solubility (mole fraction) (in THF, 283.15 K): 0.0374 | solubility (mole fraction) (in THF, 288.15 K): 0.0426 | solubility (mole fraction) (in THF, 293.15 K): 0.0478 | solubility (mole fraction) (in THF, 298.15 K): 0.0543 | solubility (mole fraction) (in THF, 303.15 K): 0.0611 | solubility (mole fraction) (in THF, 308.15 K): 0.0663 | solubility (mole fraction) (in THF, 313.15 K): 0.0742 | solubility (mole fraction) (in THF, 318.15 K): 0.0803 | solubility (mole fraction) (in THF, 323.15 K): 0.0886 | solubility (mole fraction) (in acetonitrile, 278.15 K): 0.00178 | solubility (mole fraction) (in acetonitrile, 283.15 K): 0.00219 | solubility (mole fraction) (in acetonitrile, 288.15 K): 0.00266 | solubility (mole fraction) (in acetonitrile, 293.15 K): 0.0032 | solubility (mole fraction) (in acetonitrile, 298.15 K): 0.00381 | solubility (mole fraction) (in acetonitrile, 303.15 K): 0.00449 | solubility (mole fraction) (in acetonitrile, 308.15 K): 0.00524 | solubility (mole fraction) (in acetonitrile, 313.15 K): 0.00607 | solubility (mole fraction) (in acetonitrile, 318.15 K): 0.00698 | solubility (mole fraction) (in acetonitrile, 323.15 K): 0.00797 | solubility (mole fraction) (in ethanol, 278.15 K): 0.00865 | solubility (mole fraction) (in ethanol, 283.15 K): 0.0103 | solubility (mole fraction) (in ethanol, 288.15 K): 0.0122 | solubility (mole fraction) (in ethanol, 293.15 K): 0.0144 | solubility (mole fraction) (in ethanol, 298.15 K): 0.0175 | solubility (mole fraction) (in ethanol, 303.15 K): 0.0209 | solubility (mole fraction) (in ethanol, 308.15 K): 0.0241 | solubility (mole fraction) (in ethanol, 313.15 K): 0.028 | solubility (mole fraction) (in ethanol, 318.15 K): 0.0323 | solubility (mole fraction) (in ethanol, 323.15 K): 0.0379 | solubility (mole fraction) (in ethyl acetate, 278.15 K): 0.00491 | solubility (mole fraction) (in ethyl acetate, 283.15 K): 0.00583 | solubility (mole fraction) (in ethyl acetate, 288.15 K): 0.00674 | solubility (mole fraction) (in ethyl acetate, 293.15 K): 0.00802 | solubility (mole fraction) (in ethyl acetate, 298.15 K): 0.00937 | solubility (mole fraction) (in ethyl acetate, 303.15 K): 0.011 | solubility (mole fraction) (in ethyl acetate, 308.15 K): 0.0126 | solubility (mole fraction) (in ethyl acetate, 313.15 K): 0.0144 | solubility (mole fraction) (in ethyl acetate, 318.15 K): 0.0165 | solubility (mole fraction) (in ethyl acetate, 323.15 K): 0.0186 | solubility (mole fraction) (in isopropanol, 278.15 K): 0.0089 | solubility (mole fraction) (in isopropanol, 283.15 K): 0.0107 | solubility (mole fraction) (in isopropanol, 288.15 K): 0.0128 | solubility (mole fraction) (in isopropanol, 293.15 K): 0.0152 | solubility (mole fraction) (in isopropanol, 298.15 K): 0.018 | solubility (mole fraction) (in isopropanol, 303.15 K): 0.0213 | solubility (mole fraction) (in isopropanol, 308.15 K): 0.025 | solubility (mole fraction) (in isopropanol, 313.15 K): 0.0292 | solubility (mole fraction) (in isopropanol, 318.15 K): 0.034 | solubility (mole fraction) (in isopropanol, 323.15 K): 0.0394 | solubility (mole fraction) (in methanol, 278.15 K): 0.00787 | solubility (mole fraction) (in methanol, 283.15 K): 0.00924 | solubility (mole fraction) (in methanol, 288.15 K): 0.0107 | solubility (mole fraction) (in methanol, 293.15 K): 0.0124 | solubility (mole fraction) (in methanol, 298.15 K): 0.0145 | solubility (mole fraction) (in methanol, 303.15 K): 0.017 | solubility (mole fraction) (in methanol, 308.15 K): 0.0196 | solubility (mole fraction) (in methanol, 313.15 K): 0.0229 | solubility (mole fraction) (in methanol, 318.15 K): 0.0271 | solubility (mole fraction) (in methanol, 323.15 K): 0.0315 | solubility (mole fraction) (in methyl acetate, 278.15 K): 0.00916 | solubility (mole fraction) (in methyl acetate, 283.15 K): 0.0104 | solubility (mole fraction) (in methyl acetate, 288.15 K): 0.0117 | solubility (mole fraction) (in methyl acetate, 293.15 K): 0.0131 | solubility (mole fraction) (in methyl acetate, 298.15 K): 0.0147 | solubility (mole fraction) (in methyl acetate, 303.15 K): 0.0164 | solubility (mole fraction) (in methyl acetate, 308.15 K): 0.0182 | solubility (mole fraction) (in methyl acetate, 313.15 K): 0.0201 | solubility (mole fraction) (in methyl acetate, 318.15 K): 0.0221 | solubility (mole fraction) (in methyl acetate, 323.15 K): 0.0244 | solubility (mole fraction) (in n-butanol, 278.15 K): 0.0119 | solubility (mole fraction) (in n-butanol, 283.15 K): 0.014 | solubility (mole fraction) (in n-butanol, 288.15 K): 0.0163 | solubility (mole fraction) (in n-butanol, 293.15 K): 0.0189 | solubility (mole fraction) (in n-butanol, 298.15 K): 0.0218 | solubility (mole fraction) (in n-butanol, 303.15 K): 0.0249 | solubility (mole fraction) (in n-butanol, 308.15 K): 0.0283 | solubility (mole fraction) (in n-butanol, 313.15 K): 0.0319 | solubility (mole fraction) (in n-butanol, 318.15 K): 0.0358 | solubility (mole fraction) (in n-butanol, 323.15 K): 0.0399 | solubility (mole fraction) (in n-propanol, 278.15 K): 0.0102 | solubility (mole fraction) (in n-propanol, 283.15 K): 0.0126 | solubility (mole fraction) (in n-propanol, 288.15 K): 0.0152 | solubility (mole fraction) (in n-propanol, 293.15 K): 0.0182 | solubility (mole fraction) (in n-propanol, 298.15 K): 0.0216 | solubility (mole fraction) (in n-propanol, 303.15 K): 0.0254 | solubility (mole fraction) (in n-propanol, 308.15 K): 0.0296 | solubility (mole fraction) (in n-propanol, 313.15 K): 0.0342 | solubility (mole fraction) (in n-propanol, 318.15 K): 0.0391 | solubility (mole fraction) (in n-propanol, 323.15 K): 0.0445
